Measurements published in patent publication US20250002464A1, “NOVEL COMPOUND AND PHARMACEUTICAL COMPOSITION COMPRISING SAME” (SAPIENSBIO INC., priority 2021, published 2025).

Test system: α-SMA
Assay: α-SMA expression inhibitory ability in MRC5 cell line (Western blotting)
Assay type: cell-based
Conditions: TGF-β1 (10 ng/mL), 72 hours, relative to TGF-β1 only
Protocol: Subsequently, the inhibitory effect on pulmonary fibrosis of the compounds according to the present invention was overall evaluated. An MRC5 cell line was treated with each compound at 10 μM, and 2 hours later, treated with TGF-β1 (10 ng/mL). After 72 hours, the cells were lysed using RIPA Buffer, and then an α-SMA protein level was measured through Western blotting. The α-SMA expression level when treating the cells with each compound and TGF-β1 compared to the α-SMA expression level when treating the cells only with TGF-β1 without the compound was calculated as the α-SMA expression inhibitory ability of the corresponding compound. The α-SMA expression inhibitory ability of each compound is summarized in Table 2 below (A: inhibitory ability≥70%, B: 50%: inhibitory ability<70%, C: inhibitory ability<50%).

Row | Compound | inhibition at 10 µM [%]
1 | CN1CCN(CCC(=O)N2CCN(C(=O)c3ccccc3)c3ccccc32)CC1 [Compound 198, 1-(4-benzoyl-3,4-dihydroquinoxaline-1(2H)-yl)-3-(4-methylpiperazin-1-yl)propan-1-one] | < 50
2 | O=C(CCN1CCCCC1)N1CCN(C2CCCCC2)c2ccccc21 [Compound 187, 1-(4-cyclohexyl-3,4-dihydroquinoxaline-1(2H)-yl)-3-(piperidin-1-yl)propan-1-one] | ≥ 70
3 | O=C(CCN1CCCCC1)N1CCN(Cc2ccccc2)c2ccccc21 [Compound 79, 1-(4-benzyl-3,4-dihydroquinoxaline-1(2H)-yl)-3-(piperidin-1-yl)propan-1-one] | < 50
4 | O=C(CCN1CCCC1)N1CCN(c2ccccc2)c2cc(F)ccc21 [Compound 1, 1-(6-fluoro-4-phenyl-3,4-dihydroquinoxaline-1(2H)-yl)-3-(pyrrolidin-1-yl)propan-1-one] | 50 to 70
5 | O=C(CCN1CCCCC1)N1CCN(c2ccc(Cl)cc2)c2ccccc21 [Compound 141, 1-(4-(4-chlorophenyl)-3,4-dihydroquinoxaline-1(2H)-yl)-3-(piperidin-1-yl)propan-1-one] | 50 to 70
6 | CC(C)CN1CCN(C(=O)CCN2CCN(C)CC2)c2ccccc21 [Compound 170, 1-(4-isobutyl-3,4-dihydroquinoxaline-1(2H)-yl)-3-(4-methylpiperazin-1-yl)propan-1-one di L-tartrate] | 50 to 70
7 | O=C(CCN1CCCCC1)N1CCN(c2ccccc2)c2cc(F)ccc21 [Compound 3, 1-(6-fluoro-4-phenyl-3,4-dihydroquinoxaline-1(2H)-yl)-3-(piperidin-1-yl)propan-1-one] | 50 to 70
8 | CC(C(=O)N1CCN(c2ccccc2)c2cc(F)ccc21)N1CCCC1 (centres unmarked) [Compound 10, 1-(6-fluoro-4-phenyl-3,4-dihydroquinoxaline-1(2H)-yl)-2-(pyrrolidin-1-yl)propan-1-one] | < 50
9 | CC(C(=O)N1CCN(c2ccc(Cl)cc2)c2ccccc21)N1CCN(C)CC1 (centres unmarked) [Compound 145, 1-(4-(4-chlorophenyl)-3,4-dihydroquinoxaline-1(2H)-yl)-2-(4-methylpiperazin-1-yl)propan-1-one] | ≥ 70
10 | O=C(CCN1CCCC(O)C1)N1CCN(c2ccccc2)c2ccccc21 (centres unmarked) [Compound 58, 3-(3-hydroxypiperidin-1-yl)-1-(4-phenyl-3,4-dihydroquinoxaline-1(2H)-yl)propan-1-one] | 50 to 70
11 | O=C(CCc1cnc[nH]1)N1CCN(c2ccc(F)cc2)c2ccccc21 [Compound 29, 1-(4-(4-fluorophenyl)-3,4-dihydroquinoxaline-1(2H)-yl)-3-(1H-imidazol-5-yl)propan-1-one] | ≥ 70
12 | O=C(CCN1CCN2CCCC2C1)N1CCN(c2ccc(F)cc2)c2cc(F)ccc21 (centres unmarked) [Compound 42, 1-(6-fluoro-4-(4-fluorophenyl)-3,4-dihydroquinoxaline-1(2H)-yl)-3-(hexahydropyrrolo[1,2-a]pyrazin-2(1H)-yl)propan-1-one] | < 50
13 | O=C(CN1CCCC1)N1CCN(Cc2cccc(Cl)c2)c2ccccc21 [Compound 102, 1-(4-(3-chlorobenzyl)-3,4-dihydroquinoxaline-1(2H)-yl)-2-(pyrrolidin-1-yl)ethan-1-one] | < 50
14 | CC(C)CN1CCN(C(=O)CN2CCN(C)CC2)c2ccccc21 [Compound 176, 1-(4-isobutyl-3,4-dihydroquinoxaline-1(2H)-yl)-2-(4-methylpiperazin-1-yl)ethan-1-one] | < 50
15 | C[C@@H]1CCCCN1CCC(=O)N1CCN(c2ccccc2)c2cc(F)ccc21 [Compound 6, (R)-1-(6-fluoro-4-phenyl-3,4-dihydroquinoxaline-1(2H)-yl)-3-(2-methylpiperidin-1-yl)propan-1-one] | 50 to 70
16 | CC(C(=O)N1CCN(CC2CC2)c2ccccc21)N1CCCCC1 (centres unmarked) [Compound 165, 1-(4-(cyclopropylmethyl)-3,4-dihydroquinoxaline-1(2H)-yl)-2-(piperidin-1-yl)propan-1-one] | < 50
17 | O=C(CCN1CCN2CCCC2C1)N1CCN(c2ccc(F)cc2)c2ccccc21 (centres unmarked) [Compound 20, 1-(4-(4-fluorophenyl)-3,4-dihydroquinoxaline-1(2H)-yl)-3-(hexahydropyrrolo[1,2-a]pyrazin-2(1H)-yl)propan-1-one] | 50 to 70
18 | CN1CCN(CCC(=O)N2CCN(CC3CC3)c3ccccc32)CC1 [Compound 163, 1-(4-(cyclopropylmethyl)-3,4-dihydroquinoxaline-1(2H)-yl)-3-(4-methylpiperazin-1-yl)propan-1-one] | < 50
19 | CC(C(=O)N1CCN(c2ccc(F)cc2)c2cc(F)ccc21)N1CCCC1 (centres unmarked) [Compound 51, 1-(6-fluoro-4-(4-fluorophenyl)-3,4-dihydroquinoxaline-1(2H)-yl)-2-(pyrrolidin-1-yl)propan-1-one] | ≥ 70

Row | Compound | inhibition at 10 µM [%]
20 | O=C(CCN1CCOCC1)N1CCN(c2ccc(F)cc2)c2cc(F)ccc21 [Compound 37, 1-(6-fluoro-4-(4-fluorophenyl)-3,4-dihydroquinoxaline-1(2H)-yl)-3-morpholinopropan-1-one] | < 50
21 | O=C(CCN1CCCCC1)N1CCN(c2ccc(F)cc2)c2ccccc21 [Compound 16, 1-(4-(4-fluorophenyl)-3,4-dihydroquinoxaline-1(2H)-yl)-3-(piperidin-1-yl)propan-1-one] | ≥ 70
22 | O=C(CCN1CCCC1)N1CCN(Cc2ccccn2)c2ccccc21 [Compound 114, 1-(4-(pyridin-2-ylmethyl)-3,4-dihydroquinoxaline-1(2H)-yl)-3-(pyrrolidin-1-yl)propan-1-one di-oxalate] | 50 to 70
23 | O=C(CCN1CCCC1)N1CCN(Cc2ccncc2)c2ccccc21 [Compound 122, 1-(4-(pyridin-4-ylmethyl)-3,4-dihydroquinoxaline-1(2H)-yl)-3-(pyrrolidin-1-yl)propan-1-one] | 50 to 70
24 | CC(NC1CCN(C)C1)C(=O)N1CCN(c2ccccc2)c2ccccc21 (centres unmarked) [Compound 65, 2-((1-methylpyrrolidin-3-yl)amino)-1-(4-phenyl-3,4-dihydroquinoxaline-1(2H)-yl)propan-1-one] | < 50
25 | CC(C)N1CCN(C(=O)CCN2CCCCC2)c2ccccc21 [Compound 178, 1-(4-isopropyl-3,4-dihydroquinoxaline-1(2H)-yl)-3-(piperidin-1-yl)propan-1-one] | < 50
26 | O=C(CCN1CCCC1)N1CCN(c2ccncc2)c2ccccc21 [Compound 158, 1-(4-(pyridin-4-yl)-3,4-dihydroquinoxaline-1(2H)-yl)-3-(pyrrolidin-1-yl)propan-1-one] | < 50
27 | O=C(CCN1CCCC1)N1CCN(c2ccc(Cl)cc2)c2ccccc21 [Compound 140, 1-(4-(4-chlorophenyl)-3,4-dihydroquinoxaline-1(2H)-yl)-3-(pyrrolidin-1-yl)propan-1-one] | < 50
28 | O=C(CCN1CCNCC1)N1CCN(c2ccc(F)cc2)c2ccccc21 [Compound 28, 1-(4-(4-fluorophenyl)-3,4-dihydroquinoxaline-1(2H)-yl)-3-(piperazin-1-yl)propan-1-one] | ≥ 70
29 | CN1CCN(CCC(=O)N2CCN(Cc3cccnc3)c3ccccc32)CC1 [Compound 121, 3-(4-methylpiperazin-1-yl)-1-(4-(pyridin-3-ylmethyl)-3,4-dihydroquinoxaline-1(2H)-yl)propan-1-one] | < 50
30 | O=C(CCN1CCCCC1)N1CCN(c2ccncc2)c2ccccc21 [Compound 159, 3-(piperidin-1-yl)-1-(4-(pyridin-4-yl)-3,4-dihydroquinoxaline-1(2H)-yl)propan-1-one] | < 50
31 | O=C(CCN1CCCC1)N1CCN(c2ccc(F)cc2)c2cc(F)ccc21 [Compound 36, 1-(6-fluoro-4-(4-fluorophenyl)-3,4-dihydroquinoxaline-1(2H)-yl)-3-(pyrrolidin-1-yl)propan-1-one] | ≥ 70
32 | CN1CCN(CCC(=O)N2CCN(c3ccc(F)cc3)c3cc(F)ccc32)CC1 [Compound 39, 1-(6-fluoro-4-(4-fluorophenyl)-3,4-dihydroquinoxaline-1(2H)-yl)-3-(4-methylpiperazin-1-yl)propan-1-one] | 50 to 70
33 | CN1CCN(CCC(=O)N2CCN(Cc3ccccc3)c3ccccc32)CC1 [Compound 80, 1-(4-benzyl-3,4-dihydroquinoxaline-1(2H)-yl)-3-(4-methylpiperazin-1-yl)propan-1-one] | 50 to 70
34 | O=C(CCN1CCCC1)N1CCN(C(=O)c2ccccc2)c2ccccc21 [Compound 196, 1-(4-benzoyl-3,4-dihydroquinoxaline-1(2H)-yl)-3-(pyrrolidin-1-yl)propan-1-one] | < 50
35 | O=C(CN1CCCCC1)N1CCN(c2ccccc2Cl)c2ccccc21 [Compound 132, 1-(4-(2-chlorophenyl)-3,4-dihydroquinoxaline-1(2H)-yl)-2-(piperidin-1-yl)ethan-1-one] | 50 to 70
36 | CN1CCN(C(=O)CN2CCN(c3ccccc3)c3ccccc32)CC1 [Compound 73, 1-(4-methylpiperazin-1-yl)-2-(4-phenyl-3,4-dihydroquinoxaline-1(2H)-yl)ethan-1-one] | 50 to 70
37 | CC(C(=O)N1CCN(c2ccccc2Cl)c2ccccc21)N1CCCC1 (centres unmarked) [Compound 128, 1-(4-(2-chlorophenyl)-3,4-dihydroquinoxaline-1(2H)-yl)-2-(pyrrolidin-1-yl)propan-1-one] | 50 to 70
38 | O=C(CN1CCCC1)N1CCN(c2ccccc2Cl)c2ccccc21 [Compound 131, 1-(4-(2-chlorophenyl)-3,4-dihydroquinoxaline-1(2H)-yl)-2-(pyrrolidin-1-yl)ethan-1-one] | 50 to 70
